Measurements reported in US6600015B2, “Selective linear peptides with melanocortin-4 receptor (MC4-R) agonist activity” (Hoffmann-La Roche Inc., priority 2000, dated 2003).
Non-standard residues stand in square brackets, D forms with d. Residues, ends and D or L forms follow the SMILES beside them. *: point of attachment. Butyryl = CCCC(=O)*

Assays:
MC-4 receptor = target: T1, MC-4 receptor (Homo sapiens, UniProt P32245); assay: Agonist assay: cAMP response in 293 cells transfected with MC-4 receptor (Biotrak-cAMP SPA); format: cell-based; conditions: cAMP increase, read-out: EC50 for MC4-R agonist activity
T1 construct: expressed in transfected cells; host or cells: 293 cells (293MC4, obtained from Dr. Wei Gu, Millenium)
Method: Description: 293 cells transfected with either the MC-4 receptor or MC-1 receptor were grown in 96 well plates. The cells were stimulated with either 100 nM NDP-αMSH or screening compounds. Cyclic AMP was extracted from the cells and concentrations were determined using a Biotrak-cAMP SPA assay. Agonists were identified as those compounds causing an increase in cAMP. […] Wei Gu, Millenium) were cultured in 75cm^2flasks in D-MEM supplemented with 10% FCS and 500 μg/ml G418. Cells were trypsinized and split 1:3 into 96 well flat-bottom tissue culture treated plates. Cells were stimulated at confluence (day 2-4). cAMP Response: Compounds serially diluted in 100% DMSO were further diluted 1:200 (2.5 μl compound dilution+500 μl media) in D-MEM containing 10% FBS and 0.1 mM IBMX. For unstimulated cells, 2.5 μl of DMSO was added to 500 μl of media. For NDP-αMSH stimulated cells, 2.5 μl of 20 μM NDP-αMSH in 100% DMSO was added to 500 μl of media (final conc. 100 nM). Final concentration of DMSO in all wells was 0.5%. Note: Each sample was run in duplicate on separate plates Culture medium was removed from confluent 96 well culture plates and replaced with 200 μl of above dilutions into the appropriate wells . The plates were incubated for 1 hr at RT. […] [125I]cAMP binding to the SPA beads was determined by counting each plate for 2 minutes on a Packard TopCount™. […]

MC-1 receptor = target: T2, MC-1 receptor (Homo sapiens, UniProt Q01726); assay: Agonist assay: cAMP response in 293 cells transfected with MC-1 receptor (Biotrak-cAMP SPA); format: cell-based; conditions: MC1-R versus MC4-R agonist activity, transfected 293 cells
T2 construct: expressed in transfected cells; host or cells: 293 cells
T2 sequence (Q01726 whole entry): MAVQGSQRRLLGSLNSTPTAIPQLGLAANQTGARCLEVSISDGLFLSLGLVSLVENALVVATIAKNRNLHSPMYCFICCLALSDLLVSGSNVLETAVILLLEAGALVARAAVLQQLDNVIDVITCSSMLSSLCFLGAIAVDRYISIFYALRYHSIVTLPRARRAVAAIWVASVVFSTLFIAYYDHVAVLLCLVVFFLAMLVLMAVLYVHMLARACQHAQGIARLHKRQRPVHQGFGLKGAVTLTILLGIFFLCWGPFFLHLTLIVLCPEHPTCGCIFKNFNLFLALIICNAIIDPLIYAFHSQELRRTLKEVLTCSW
Method: Culture medium was removed from confluent 96 well culture plates and replaced with 200 μl of above dilutions into the appropriate wells . The plates were incubated for 1 hr at RT. The media was removed, and the plates were washed 1× with 200^μl well of PBS. CAMP was extracted by the addition of 60 μl 70% ethanol (stored in the refrigerator). […]
cAMP Assay: The extracted samples and all reagents included in the kit were brought to room temperature. […] [125I]cAMP binding to the SPA beads was determined by counting each plate for 2 minutes on a Packard TopCount™. […]

T1 sequence (P32245 whole entry): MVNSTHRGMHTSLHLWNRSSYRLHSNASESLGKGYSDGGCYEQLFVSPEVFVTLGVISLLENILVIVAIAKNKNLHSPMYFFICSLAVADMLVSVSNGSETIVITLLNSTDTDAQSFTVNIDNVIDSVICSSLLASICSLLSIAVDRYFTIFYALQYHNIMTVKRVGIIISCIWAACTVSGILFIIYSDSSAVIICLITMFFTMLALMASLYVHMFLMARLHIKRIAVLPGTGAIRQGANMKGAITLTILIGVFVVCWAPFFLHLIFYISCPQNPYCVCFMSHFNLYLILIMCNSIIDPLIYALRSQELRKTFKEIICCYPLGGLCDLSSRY

Row | EC50 (MC-4 receptor) [nM] | SMILES | MC1-R agonist activity compared with MC4-R agonist activity (MC-1 receptor)
1 | < 500 | CCCCC(=O)NC1(C(=O)N[C@H](Cc2ccccc2)C(=O)N[C@@H](CCCNC(=N)N)C(=O)N[C@@H](Cc2c[nH]c3ccccc23)C(=O)NCC(N)=O)CC=C(c2ccccc2)CC1 (single isomer, unassigned) [Penta-Ape-(D)Phe-Arg-Trp-Gly-NH2] | 
2 |  | CCCC(=O)N[C@@H](Cc1c[nH]cn1)C(=O)N[C@H](Cc1ccccc1)C(=O)N[C@@H](CCCNC(=N)N)C(=O)N[C@@H](Cc1c[nH]c2ccccc12)C(=O)NCC(N)=O [Example 30, Bu-His-(D)Phe-Arg-Trp-Gly-NH2] (Butyryl-H[dF]RWG-NH2) | greater MC1-R agonist activity than MC4-R agonist activity
